Type in all cases: cell-based
Assay [1] concerns myosin light chain (MLC) phosphorylation on Serine 19. Description: Immunoblot of myosin light chain phosphorylation with anti-pMLC (Ser19). As to conditions: 25 μM Y-27 for 15 min. The method, then:
YTS-2DL1 cells were treated with 25 μM of Y-27 for 15 min at 37° C., or left untreated. Cells were incubated at 37° C. with […] target cells for 5 min, 1 μM of JAS was added, and cells were incubated for 5 min. Cell lysates were analyzed by IB for phosphorylation of myosin light chain using anti-pMLC (Ser19) antibodies.
For analysis of whole cell lysates, 1-10×10^5 cells were used, and for IP experiments, 10-15×10^6 cells were used. Protein A/G plus-Agarose beads (Santa Cruz Biotechnology) were used for IP. Protein samples were resolved with sodium dodecyl sulfate-polyacrylamide gel electrophoresis (SDS-PAGE), transferred to nitrocellulose membrane, and immunoblotted with the appropriate primary antibodies. Immunoreactive proteins were detected with either anti-mouse or anti-rabbit horseradish peroxidase-coupled secondary antibody followed by detection by enhanced chemiluminescence (PerkinElmer).
(In general: In western blotting, separated proteins are transferred to a membrane and probed.)

The test system of another assay is YTS F-tractin GFP cells. The assay is described as follows: NKIS area of YTS F-tractin GFP cells spread over antibody-coated coverslips. The settings on record: 25 μM Y-27 or 1 μM JAS; anti-CD28 or anti-KIR1. The method, then: FIGS. 5E-5H. show analyses of NKIS area and ARF in the activating vs. inhibitory NKIS in the presence of Y-27632 (Y-27) inhibitor of myosin light chain (MLC) phosphorylation and/or JAS. In FIG. 5E is live cell imaging of YTS-2DL1 cells expressing F-tractin GFP treated with 25 μM Y-27 (anti-CD28: n=6 movies; anti-KIR1: n=6 movies). […] In FIG. 5F are YTS F-tractin GFP cells treated with 25 μM Y-27 or left untreated. Cells were seeded over coverslips pre-coated with anti-CD28 or anti-KIR1 and allowed to spread at 37° C. for 10 min before fixation, and 1 μM JAS was added 5 min after initial spreading. NKIS area was determined using ImageJ. […]
Chambered cover glasses (LabTek) were cleaned by treatment with 1 M HCl, 70% ethanol for 30 min and dried at 60° C. for 30 min. […] The NK and target cells in the conjugates were distinguished based on fluorescence signal, in which the target cells expressed mCherry and the NK cells expressed various YFP, CFP or GFP tagged proteins. […] The relative fluorescence intensity of the proteins at the synapse was determined by measuring the ratio between fluorescence intensity at the NKIS relative to a non-NKIS site using ImageJ. […]

The subject of another assay is SHP-1. Description: PTP assay: SHP-1 catalytic activity (pNPP hydrolysis) after treatment of NK-target cell conjugates. As to conditions: inhibited NK cells (YTS-2DL1 + 221-Cw4), untreated 100±2.8%; 1 μM JAS, 25 μM Y-27. As for the experimental part:
YTS-2DL1 cells were pretreated with 25 μM Y-27 or left untreated. Cells were incubated at 37° C. with target cells for 5 min, 1 μM of JAS was added, and samples were incubated for 5 minutes before lysis. IP of SHP-1 was performed, and precipitates were incubated with pNpp. SHP-1 activity was determined by measuring absorbance at 405 nm. The graph represents rates of SHP-1 catalytic activity from three independent experiments.
In FIG. 8E, YTS-2DL1 cells were incubated at 37° C. with 221-Cw4 or Cw7 cells for 5 min, treated with 0.5 μM of CytD or left untreated, and SHP-1 activity was determined as detailed in the Materials and Methods. Graph summarizing percent of relative SHP-1 catalytic activity obtained by four independent experiments. Data are means±SEM.
SHP-1 catalytic activity was determined by measuring the hydrolysis of the exogenous substrate p-Nitrophenyl Phosphate (pNPP) by SHP-1, as previously described. NK cells (2-5×10^6) were incubated with target cells at ratio of 1:1, activated as described above, and lysed with passive ice-cold lysis buffer (1% Brij, 1% n-Octyl-b-D-glucoside, 50 mM Tris-HCl, pH 7.4, 150 mM NaCl, 5 mM ethylenediaminetetraacetic acid, and complete protease inhibitor tablets). Cell lysates were subjected to IP with anti-SHP-1 antibody. […] Reactions were terminated by adding 800 μl 1M NaOH, and SHP-1 activity was determined by measuring absorbance at 405 nm.

Structures can show the parent of a compound that is named as a salt.

With `C[C@@H](N)C1CCC(C(=O)Nc2ccncc2)CC1` (stereo partly drawn) [Formula Y-27, 4-[(1R)-1-aminoethyl]-N N-4-pyridinyl-trans-cyclohexanecarboxamide, dihydrochloride], the “MLC phosphorylation (pMLC S19)” value in assay [1] was “significant reduction in phosphorylation”. Also, in the assay with YTS F-tractin GFP cells, the “NKIS area / NK contact area” value was “significantly enlarged NKIS area”. Besides, the SHP-1 catalytic activity in the assay with SHP-1 worked out at 66.4±1.1%.
